Values of other authors in patent publication US20230076766A1, “METHOD FOR TREATMENT OF ROSACEA IN PATIENTS AGED 35-64 YEARS” (Sol-Gel Technologies Ltd., priority 2021, published 2023).

Tested on: rosacea lesions
Conditions: BPO as the sole active agent

O=C(OOC(=O)c1ccccc1)c1ccccc1 [BPO, Benzoyl peroxide]
response of rosacea lesions: unresponsive
